Test results taken from patent US12116343B2, “Inhibitors of APOL1 and methods of using same” (Vertex Pharmaceuticals Incorporated, priority 2020, dated 2024).

biological target: T1, G1 APOL1 (Homo sapiens, UniProt O14791, I384M/S342G); experiment: Acute APOL1 Thallium Assay with inducible stable clones of HEK 293 cells; format: cell-based; conditions: HEK 293 T-Rex cells expressing G1 APOL1; read-out: Thallium Assay (IC50)
T1 construct: expressed in transfected cells
T1 sequence (O14791 28-398 S342G/I384M): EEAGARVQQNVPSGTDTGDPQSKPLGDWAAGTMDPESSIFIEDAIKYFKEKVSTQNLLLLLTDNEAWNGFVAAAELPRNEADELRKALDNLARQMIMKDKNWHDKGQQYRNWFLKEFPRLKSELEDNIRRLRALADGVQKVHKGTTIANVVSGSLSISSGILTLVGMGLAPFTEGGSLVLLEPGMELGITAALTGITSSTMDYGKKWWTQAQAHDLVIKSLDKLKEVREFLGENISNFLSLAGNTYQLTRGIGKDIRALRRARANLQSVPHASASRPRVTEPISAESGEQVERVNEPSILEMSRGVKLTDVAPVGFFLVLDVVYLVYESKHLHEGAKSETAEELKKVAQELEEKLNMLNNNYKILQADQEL
Outline: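 Tetracycline-inducible HEK293 T-Rex clone G1 DC3.25 expressing G1 APOL1, plated at 26000 cells/well in Opti-MEM with tetracycline induction. APOL1 pore activity read on FLIPR as fluorescence increase from Tl+ influx into cells loaded with a Tl+-sensitive AM-ester dye.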

| SMILES | IC50 |
| --- | --- |
| C[C@@H](CO)NC(=O)[C@H]1C[C@@H](c2c(-c3ccc(F)cc3)[nH]c3c(F)cc(F)cc32)C1 [Compound 271] | 0.25 to 1 µM |
| O=C(NCC1CC(F)(F)C1)[C@H]1C[C@@H](c2c(-c3ccc(F)cc3)[nH]c3c(F)cc(F)cc32)C1 [Compound 266] | > 1 µM |
| O=C(N[C@@H]1CC[C@H](O)C1)[C@H]1C[C@H](c2c(-c3ccc(F)cc3)[nH]c3c(F)cc(F)cc32)C1 [Compound 180] | > 1 µM |
| C[C@H](CO)NC(=O)CNC(=O)[C@H]1C[C@H](c2c(-c3ccc(F)cc3)[nH]c3c(F)cc(F)cc32)C1 [Compound 232] | > 1 µM |
| CC1(C(=O)N[C@H]2CCNC2=O)CC(c2c(-c3ccc(F)cc3)[nH]c3c(F)cc(F)cc23)C1 (mixture of isomers) [Compound 284] | 0.25 to 1 µM |
| O=C1NC[C@@H](O)[C@@H]1NC(=O)[C@H]1C[C@H](c2c(-c3ccc(F)cc3)[nH]c3c(F)cc(F)cc32)C1 [Compound 229] | < 0.25 µM |
| O=C(NCC(O)CO)[C@H]1C[C@@H](c2c(-c3ccc(F)cc3)[nH]c3c(F)cc(F)cc32)C1 (stereo partly shown) [Compound 244] | > 1 µM |
| O=C(NCCn1cccc1)[C@H]1C[C@@H](c2c(-c3ccc(F)cc3)[nH]c3c(F)cc(F)cc32)C1 [Compound 262] | > 1 µM |
| O=C(NCC(F)F)[C@H]1C[C@@H](c2c(-c3ccc(F)cc3)[nH]c3c(F)cc(F)cc32)C1 [Compound 238] | 0.25 to 1 µM |
| C[C@H](CO)N(C)C(=O)[C@H]1C[C@H](c2c(-c3ccc(F)cc3)[nH]c3c(F)cc(F)cc32)C1 [Compound 190] | 0.25 to 1 µM |
| C[C@H](CO)NC(=O)[C@H]1C[C@@H](c2c(-c3ccc(F)cc3)[nH]c3c(F)cc(F)cc32)C1 [Compound 272] | > 1 µM |
| NC(=O)C(CO)NC(=O)[C@H]1C[C@@H](c2c(-c3ccc(F)cc3)[nH]c3c(F)cc(F)cc32)C1 (stereo partly shown) [Compound 259] | > 1 µM |
| CC(C)(CO)NC(=O)[C@H]1C[C@@H](c2c(-c3ccc(F)cc3)[nH]c3c(F)cc(F)cc32)C1 [Compound 256] | 0.25 to 1 µM |
| O=C(NC1(CO)CC1)[C@H]1C[C@@H](c2c(-c3ccc(F)cc3)[nH]c3c(F)cc(F)cc32)C1 [Compound 253] | > 1 µM |
| O=C([C@H]1C[C@H](c2c(-c3ccc(F)cc3)[nH]c3c(F)cc(F)cc32)C1)N1CCOC(CO)C1 (stereo partly shown) [Compound 152] | > 1 µM |
| O=C(CNC(=O)[C@H]1C[C@H](c2c(-c3ccc(F)cc3)[nH]c3c(F)cc(F)cc32)C1)NCCO [Compound 231] | > 1 µM |
| O=C1NC[C@@H](O)[C@@H]1NC(=O)[C@H]1C[C@@H](c2c(-c3ccc(F)cc3)[nH]c3c(F)cc(F)cc32)C1 [Compound 277] | > 1 µM |

same assay, conditions: Table 24, Compounds 287 to 465; read-out: Thallium Assay (IC50)

| SMILES | IC50 |
| --- | --- |
| CC(C)(CO)NC(=O)O[C@H]1C[C@H](c2c(-c3ccc(F)cc3)[nH]c3c(F)cc(F)cc32)C1 [Compound 352] | 0.25 to 1 µM |
| O=C(NCc1ccc[nH]c1=O)C1CC(Cc2c(-c3ccc(F)cc3)[nH]c3c(F)cc(F)cc23)C1 (stereo not shown) [Compound 313] | > 1 µM |
| CON(C)C(=O)CN[C@H]1C[C@H](c2c(-c3ccc(F)cc3)[nH]c3c(F)cc(F)cc32)C1 [Compound 292] | > 1 µM |
| CN(C)C(=O)CNCC1CC(c2c(-c3ccc(F)cc3)[nH]c3c(F)cc(F)cc23)C1 (stereo not shown) [Compound 435] | 0.25 to 1 µM |
| Cn1cc(CNC(=O)O[C@H]2C[C@H](c3c(-c4ccc(F)cc4)[nH]c4c(F)cc(F)cc43)C2)nn1 [Compound 387] | > 1 µM |
| O=C(CC1CC(c2c(-c3ccc(F)cc3)[nH]c3c(F)cc(F)cc23)C1)N[C@@H]1CCNC1=O (stereo partly shown) [Compound 457] | > 1 µM |
| CC(CO)N(C)C(=O)NC[C@H]1C[C@H](c2c(-c3ccc(F)cc3)[nH]c3c(F)cc(F)cc32)C1 (mixture of isomers) [Compound 412] | > 1 µM |
| CNC(=O)CNC[C@H]1C[C@H](c2c(-c3ccc(F)cc3)[nH]c3c(F)cc(F)cc32)C1 [Compound 446] | < 0.25 µM |
| O=C(NC[C@H]1C[C@H](c2c(-c3ccc(F)cc3)[nH]c3c(F)cc(F)cc32)C1)N[C@H]1CC[C@H](O)C1 [Compound 419] | > 1 µM |
| O=C(CC1CC(c2c(-c3ccc(F)cc3)[nH]c3c(F)cc(F)cc23)C1)NC1(CO)CCC1 (stereo not shown) [Compound 452, 2-[3-[5,7-difluoro-2-(4-fluorophenyl)-1H-indol-3-yl]cyclobutyl]-N-[1-(hydroxymethyl)cyclobutyl]acetamide] | > 1 µM |
| CC1(NC(=O)C2CC(Cc3c(-c4ccc(F)cc4)[nH]c4c(F)cc(F)cc34)C2)CCOC1 (mixture of isomers) [Compound 334] | > 1 µM |
| NC(=O)CNC1CC(c2c(-c3ccc(F)cc3)[nH]c3c(F)cc(F)cc23)C1 (stereo not shown) [Compound 288, 2-[[3-[5,7-difluoro-2-(4-fluorophenyl)-1H-indol-3-yl]cyclobutyl]amino]acetamide] | > 1 µM |
| C[C@H](CO)NC(=O)CC1CC(c2c(-c3ccc(F)cc3)[nH]c3c(F)cc(F)cc23)C1 (stereo partly shown) [Compound 454] | > 1 µM |
| O=C(NCC1(O)CC1)NC[C@H]1C[C@H](c2c(-c3ccc(F)cc3)[nH]c3c(F)cc(F)cc32)C1 [Compound 399] | > 1 µM |
| O=C(NC[C@H](O)C(F)(F)F)NC[C@H]1C[C@H](c2c(-c3ccc(F)cc3)[nH]c3c(F)cc(F)cc32)C1 [Compound 406] | > 1 µM |
| C[C@@H](O)CNC(=O)O[C@H]1C[C@H](c2c(-c3ccc(F)cc3)[nH]c3c(F)cc(F)cc32)C1 [Compound 369] | > 1 µM |

| SMILES | IC50 |
| --- | --- |
| CC(C)(C)[C@H](CO)NC(=O)NC[C@H]1C[C@H](c2c(-c3ccc(F)cc3)[nH]c3c(F)cc(F)cc32)C1 [Compound 416] | > 1 µM |
| O=C(NC1CCOC1)O[C@H]1C[C@H](c2c(-c3ccc(F)cc3)[nH]c3c(F)cc(F)cc32)C1 (stereo partly shown) [Compound 382] | > 1 µM |
| O=C(CC1CC(c2c(-c3ccc(F)cc3)[nH]c3c(F)cc(F)cc23)C1)N[C@H]1CCNC1=O (stereo partly shown) [Compound 456] | > 1 µM |
| O=C(NCC1CCOC1)C1CC(Cc2c(-c3ccc(F)cc3)[nH]c3c(F)cc(F)cc23)C1 (stereo not shown) [Compound 330] | > 1 µM |
| O=C(NCc1ccoc1)C1CC(Cc2c(-c3ccc(F)cc3)[nH]c3c(F)cc(F)cc23)C1 (stereo not shown) [Compound 317] | > 1 µM |
| C[C@@H](O)CNC(=O)NC[C@H]1C[C@H](c2c(-c3ccc(F)cc3)[nH]c3c(F)cc(F)cc32)C1 [Compound 407] | > 1 µM |
| O=C(N[C@H]1CCOC1)O[C@H]1C[C@H](c2c(-c3ccc(F)cc3)[nH]c3c(F)cc(F)cc32)C1 [Compound 381] | > 1 µM |
| NC(=O)CNC[C@H]1C[C@H](c2c(-c3ccc(F)cc3)[nH]c3c(F)cc(F)cc32)C1 [Compound 445, 2-((((1r,3r)-3-(5,7-difluoro-2-(4-fluorophenyl)-1H-indol-3-yl)cyclobutyl)methyl)amino)acetamide] | < 0.25 µM |
| O=C(NCCO)C1CC(Cc2c(-c3ccc(F)cc3)[nH]c3c(F)cc(F)cc23)C1 (stereo not shown) [Compound 299, 3-[[5,7-difluoro-2-(4-fluorophenyl)-1H-indol-3-yl]methyl]-N-(2-hydroxyethyl)cyclobutane-1-carboxamide] | 0.25 to 1 µM |
| O=C(NCC(F)F)O[C@H]1C[C@H](c2c(-c3ccc(F)cc3)[nH]c3c(F)cc(F)cc32)C1 [Compound 351] | 0.25 to 1 µM |
| O=C(CNC[C@H]1C[C@H](c2c(-c3ccc(F)cc3)[nH]c3c(F)cc(F)cc32)C1)NCO [Compound 448] | < 0.25 µM |
| CN(C(=O)NC[C@H]1C[C@H](c2c(-c3ccc(F)cc3)[nH]c3c(F)cc(F)cc32)C1)C1COCC1O (stereo partly shown) [Compound 415] | > 1 µM |
| C[C@H](O)CNC(=O)O[C@H]1C[C@H](c2c(-c3ccc(F)cc3)[nH]c3c(F)cc(F)cc32)C1 [Compound 365] | > 1 µM |
| COCC1(CNC(=O)C2CC(Cc3c(-c4ccc(F)cc4)[nH]c4c(F)cc(F)cc34)C2)CC1 (stereo not shown) [Compound 319] | > 1 µM |
| O=C(N[C@H]1COC[C@@H]1O)O[C@H]1C[C@H](c2c(-c3ccc(F)cc3)[nH]c3c(F)cc(F)cc32)C1 [Compound 389] | > 1 µM |
| CNC(=O)N(C)CC1CC(c2c(-c3ccc(F)cc3)[nH]c3c(F)cc(F)cc23)C1 (stereo not shown) [Compound 428] | > 1 µM |
